According to patent US20040167192A1, “Methods of treating conditions associated with an Edg-7 receptor” (priority 2003, published 2004):

How the values were obtained:
Edg-3 = target: T1, Edg-3 (Homo sapiens, UniProt Q99500); test: Intracellular calcium mobilization (FLIPR) in HTC cells expressing Edg-3; format: cell-based
T1 construct: expressed in transfected cells; host or cells: HTC rat hepatoma cells

Edg-1 = target: T2, Edg-1 (Homo sapiens, UniProt P21453); test: Intracellular calcium mobilization (FLIPR) in HTC cells expressing Edg-1; format: cell-based
T2 construct: expressed in transfected cells; host or cells: HTC rat hepatoma cells

Edg-2 = target: T3, Edg-2 (Homo sapiens, UniProt Q92633); test: Intracellular calcium mobilization (FLIPR) in HTC cells expressing Edg-2; format: cell-based
T3 construct: expressed in transfected cells; host or cells: HTC rat hepatoma cells

Edg-5 = target: T4, Edg-5 (Homo sapiens, UniProt O95136); test: Intracellular calcium mobilization (FLIPR) in HTC cells expressing Edg-5; format: cell-based
T4 construct: expressed in transfected cells; host or cells: HTC rat hepatoma cells

Edg-8 = target: T5, Edg-8 (Homo sapiens, UniProt Q9H228); test: Intracellular calcium mobilization (FLIPR) in HTC cells expressing Edg-8; format: cell-based
T5 construct: expressed in transfected cells; host or cells: HTC rat hepatoma cells

Edg-4 = target: T6, Edg-4 (Homo sapiens, UniProt Q9HBW0); test: Intracellular calcium mobilization (FLIPR) in HTC cells expressing Edg-4; format: cell-based
T6 construct: expressed in transfected cells; host or cells: HTC rat hepatoma cells

Edg-6 = target: T7, Edg-6 (Homo sapiens, UniProt O95977); test: Intracellular calcium mobilization (FLIPR) in HTC cells expressing Edg-6; format: cell-based
T7 construct: expressed in transfected cells; host or cells: HTC rat hepatoma cells
T7 sequence (O95977 1-384): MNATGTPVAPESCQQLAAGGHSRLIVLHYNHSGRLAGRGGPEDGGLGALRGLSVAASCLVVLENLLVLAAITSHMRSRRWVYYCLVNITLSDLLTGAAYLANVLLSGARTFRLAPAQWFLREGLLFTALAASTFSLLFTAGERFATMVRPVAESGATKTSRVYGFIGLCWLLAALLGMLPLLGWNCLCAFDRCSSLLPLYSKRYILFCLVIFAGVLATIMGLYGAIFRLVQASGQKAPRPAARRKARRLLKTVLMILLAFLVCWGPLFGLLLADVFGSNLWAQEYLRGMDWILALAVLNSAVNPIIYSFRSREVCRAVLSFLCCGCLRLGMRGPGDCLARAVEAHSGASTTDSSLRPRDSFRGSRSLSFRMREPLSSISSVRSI

untransfected HTC cells = test: Intracellular calcium mobilization (FLIPR) in untransfected HTC cells; format: cell-based, rat; settings: concentrations as high as 25 μM
human Edg 7 receptors = target: T8, human Edg 7 receptors (Homo sapiens, UniProt Q9UBY5); test: Intracellular calcium mobilization (FLIPR) in HTC cells expressing Edg-7; format: cell-based
T8 construct: expressed in transfected cells; host or cells: HTC rat hepatoma cells
T8 sequence (Q9UBY5 1-353): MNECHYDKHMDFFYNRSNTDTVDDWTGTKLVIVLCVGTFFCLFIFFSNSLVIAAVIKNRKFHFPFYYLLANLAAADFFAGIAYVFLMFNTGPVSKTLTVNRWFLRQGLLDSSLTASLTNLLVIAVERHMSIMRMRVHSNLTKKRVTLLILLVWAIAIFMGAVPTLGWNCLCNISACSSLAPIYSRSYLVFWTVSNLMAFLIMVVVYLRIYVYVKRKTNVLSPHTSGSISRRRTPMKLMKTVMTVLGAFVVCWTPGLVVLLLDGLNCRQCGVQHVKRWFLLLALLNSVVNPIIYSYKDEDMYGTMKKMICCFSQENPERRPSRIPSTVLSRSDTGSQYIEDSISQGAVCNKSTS
Description: (§1) The compounds were tested in HTC cells expressing human Edg 7 receptors. […] The compounds are tested in this recombinant system first, and subsequently tested in cell lines expressing Edg-7 (in addition to other Edg receptors).
as §1, with “receptors). […] The calcium mobilization assays were conducted as described in Section 6.6 (Example 6).” for “receptors).”
LPA receptors such as Edg-7, couple to calcium effector pathways, and result in increases in intracellular calcium following receptor activation (An, 1998, J. Cell. Biochem Supp. 30-31:147-157). This biological response lends itself to a very efficient, high-throughput screen using a Fluorescence Imaging Plate Reader (FLIPR; Molecular Devices, Sunnyvale, Calif.). The FLIPR system is a real-time, cell-based assay system with continuous fluorescence detection using a cooled CCD camera. The FLIPR system was used to developing an Edg-7 receptor screen. Rat hepatoma cells stably expressing Edg-7 receptor were plated on 384-well plates and loaded with a calcium dye loading kit (Molecular Devices, Sunnyvale, Calif.) for 1 hour at room temperature. Cells were then placed on the FLIPR^384 (Molecular Devices, Sunnyvale, Calif.) and excited by an argon laser at 488 nm. The data for the entire 384-well plate was updated every second. An integrated robotic pipettor allowed for simultaneous compound addition into each individual well in the plate.

[1] = concentrations as high as 25 μM
[2] = HTC cells expressing human Edg 7 receptors
[3] = concentrations as high as 20 μM

T3 sequence (Q92633 whole entry): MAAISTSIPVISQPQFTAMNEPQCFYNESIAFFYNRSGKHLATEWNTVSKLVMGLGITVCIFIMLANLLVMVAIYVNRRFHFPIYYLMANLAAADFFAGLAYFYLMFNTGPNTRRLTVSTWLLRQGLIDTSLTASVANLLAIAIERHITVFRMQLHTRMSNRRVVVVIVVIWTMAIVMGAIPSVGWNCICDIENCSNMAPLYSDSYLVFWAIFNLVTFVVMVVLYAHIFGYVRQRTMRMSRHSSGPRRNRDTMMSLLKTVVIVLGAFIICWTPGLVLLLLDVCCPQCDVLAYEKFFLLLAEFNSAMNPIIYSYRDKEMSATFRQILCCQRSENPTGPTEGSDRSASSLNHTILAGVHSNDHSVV
T2 sequence (P21453 whole entry): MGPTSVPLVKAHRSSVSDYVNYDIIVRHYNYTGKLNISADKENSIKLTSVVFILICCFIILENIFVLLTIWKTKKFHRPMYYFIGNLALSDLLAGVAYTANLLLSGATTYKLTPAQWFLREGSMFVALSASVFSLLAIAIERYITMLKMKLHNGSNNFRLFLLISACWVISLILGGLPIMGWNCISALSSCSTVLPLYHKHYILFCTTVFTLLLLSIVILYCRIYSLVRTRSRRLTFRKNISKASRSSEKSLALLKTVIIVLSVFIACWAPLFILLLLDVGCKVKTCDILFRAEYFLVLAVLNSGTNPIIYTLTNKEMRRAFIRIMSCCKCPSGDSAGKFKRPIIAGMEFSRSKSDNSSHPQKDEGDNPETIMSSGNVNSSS
T5 sequence (Q9H228 whole entry): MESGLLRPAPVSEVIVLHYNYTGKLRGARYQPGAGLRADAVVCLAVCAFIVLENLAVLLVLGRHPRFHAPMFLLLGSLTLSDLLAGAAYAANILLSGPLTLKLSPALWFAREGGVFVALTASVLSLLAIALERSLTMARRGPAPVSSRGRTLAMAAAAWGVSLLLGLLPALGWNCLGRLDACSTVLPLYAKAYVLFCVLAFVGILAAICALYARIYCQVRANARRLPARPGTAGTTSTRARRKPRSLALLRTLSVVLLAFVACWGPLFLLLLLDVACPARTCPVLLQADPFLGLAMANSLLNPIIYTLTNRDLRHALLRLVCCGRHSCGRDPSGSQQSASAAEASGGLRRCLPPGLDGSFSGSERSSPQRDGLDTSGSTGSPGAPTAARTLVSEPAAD
T6 sequence (Q9HBW0 whole entry): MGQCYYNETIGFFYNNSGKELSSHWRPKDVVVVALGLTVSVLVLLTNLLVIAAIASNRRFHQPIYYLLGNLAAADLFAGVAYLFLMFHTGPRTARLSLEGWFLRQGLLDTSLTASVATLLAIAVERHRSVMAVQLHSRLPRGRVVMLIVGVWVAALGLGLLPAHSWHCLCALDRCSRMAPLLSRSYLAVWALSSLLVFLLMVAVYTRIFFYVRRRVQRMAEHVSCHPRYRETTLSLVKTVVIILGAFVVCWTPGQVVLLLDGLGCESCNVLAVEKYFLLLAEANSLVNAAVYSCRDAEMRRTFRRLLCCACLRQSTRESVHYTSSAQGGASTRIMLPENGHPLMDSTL
T4 sequence (O95136 whole entry): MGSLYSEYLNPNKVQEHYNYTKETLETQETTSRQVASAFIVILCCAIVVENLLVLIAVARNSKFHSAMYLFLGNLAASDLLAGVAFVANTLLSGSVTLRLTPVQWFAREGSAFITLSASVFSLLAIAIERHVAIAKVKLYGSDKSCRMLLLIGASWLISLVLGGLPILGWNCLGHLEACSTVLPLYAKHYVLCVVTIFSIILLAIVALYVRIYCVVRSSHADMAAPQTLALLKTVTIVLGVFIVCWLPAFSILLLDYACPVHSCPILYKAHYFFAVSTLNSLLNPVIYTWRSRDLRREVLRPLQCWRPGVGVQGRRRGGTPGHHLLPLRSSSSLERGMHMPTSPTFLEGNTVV
T1 sequence (Q99500 whole entry): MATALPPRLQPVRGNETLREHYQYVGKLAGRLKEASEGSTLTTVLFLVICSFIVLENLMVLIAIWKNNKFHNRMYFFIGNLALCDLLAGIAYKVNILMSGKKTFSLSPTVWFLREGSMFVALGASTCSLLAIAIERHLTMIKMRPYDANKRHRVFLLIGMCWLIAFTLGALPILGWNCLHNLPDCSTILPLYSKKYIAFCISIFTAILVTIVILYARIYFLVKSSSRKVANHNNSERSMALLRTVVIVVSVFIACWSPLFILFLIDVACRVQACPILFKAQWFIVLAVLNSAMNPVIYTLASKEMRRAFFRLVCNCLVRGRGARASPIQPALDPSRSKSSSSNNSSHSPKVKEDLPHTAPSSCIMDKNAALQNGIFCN

stimulation of calcium increases (Edg-3; [1]) | stimulation of calcium increases (Edg-1; [1]) | stimulation of calcium increases (Edg-2; [1]) | stimulation of calcium increases (Edg-5; [1]) | stimulation of calcium increases (Edg-8; [1]) | stimulation of calcium increases (Edg-4; [1]) | stimulation of calcium increases (Edg-6; [1]) | activation of the Edg-7 receptor (human Edg 7 receptors; [2]) | melting point | inhibition of Edg-7 stimulated LPA responses (human Edg 7 receptors; [2]) | inhibition of S1P-stimulated calcium increases (Edg-3; [3]) | inhibition of S1P-stimulated calcium increases (Edg-1; [3]) | inhibition of LPA-stimulated calcium increases (Edg-2; [3]) | inhibition of S1P-stimulated calcium increases (Edg-5; [3]) | inhibition of S1P-stimulated calcium increases (Edg-8; [3]) | inhibition of LPA-stimulated calcium increases (Edg-4; [3]) | inhibition of S1P-stimulated calcium increases (Edg-6; [3]) | selectivity for Edg 7 (human Edg 7 receptors; tested on HTC cells expressing Edg-7) | SMILES | stimulation of calcium increases (untransfected HTC cells)
did not stimulate calcium increases | did not stimulate calcium increases | did not stimulate calcium increases | did not stimulate calcium increases | did not stimulate calcium increases | did not stimulate calcium increases | did not stimulate calcium increases | specifically activate | 134 to 135 °C | – | – | – | – | – | – | – | – | – | CCCCCC(CCCCC)=N/N=C1\NC(=O)C(CC(=O)O)S1 (centres unmarked) [Compound 127, 4-Oxo-2-[(1-pentylhexylidene)hydrazono]thiazolidin-5-ylacetic acid] | did not stimulate calcium increases
– | – | – | – | – | – | – | – | – | demonstrate inhibition | – | – | – | – | – | – | – | – | O=C(O)COc1ccc(Br)cc1/C=C1\S/C(=N\c2ccc(Cl)cc2)NC1=O [Compound 107, 4-Bromo-2-[2-(4-chlorophenylamino)-4-oxothiazolidin-5-ylidenemethyl]phenoxyacetic acid] | –
– | – | – | – | – | – | – | – | – | demonstrate inhibition | did not inhibit | did not inhibit | did not inhibit | did not inhibit | did not inhibit | did not inhibit | did not inhibit | exhibited selectivity | Cc1ccc(S(=O)(=O)N=C2NC(=O)/C(=C3/C(=O)Nc4ccccc43)S2)cc1 [Compound 105, 4-Methyl-N-[4-oxo-5-(2-oxo1,2-dihydroindol-3-ylidene)thiazolidin-2-ylidene]-benzenesulfonamide] | –
